pIC50, pKd: −log10 of the molar value. Where a SMILES comes first, the peptide text is derived from it. Where no end group is shown, it is not given here.

Assay [1] concerns the target T1, HER2 recombinant human protein (Homo sapiens, UniProt P04626).
T1 construct: purchased Life Technologies / Thermo Fisher Scientific Inc
Description: Surface plasmon resonance on immobilized HER2. It counts as binding. The note with it: SPR. As for the experimental part:
All experiments were carried out at 25° C. with a data collection rate of 2 Hz. The running method was created using the Autolink control software. PBS with 0.01% Tween 20 (pH7.4) buffers were filtered and thoroughly degassed before use. HER2 recombinant human protein was covalently attached to the left channel of a 500,000 Da carboxymethylated dextran sensor chip using EDC and NHS chemistries. Then, the chip was blocked by passing EA for 8 minutes at a rate of 10 μL/min. […] Triplicate determinations were done at each concentration. The bound surface was regenerated by sequential injections of 10 mM glycine in PBST (pH 2.5).
The sensorgrams from SPR were globally treated using Scrubber 2® software where all traces were zeroed, cropped, aligned, and referenced. Kinetic constants ka and kd were determined by global fitting analyses of the titration curves using the 1:1 Lagmurian interaction model taking into account the mass transport. The equilibrium dissociation constant (KD) was calculated from the kd/ka ratio.

Assay [2] relates to MDA-MB-361, ZR-75-1 and HEK293 cells. Description: Confocal microscopy binding of FITC labeled HER2-PEPs. The class given is cell-based. Particulars: 10 μM FITC labeled peptide, 15 minutes at 37° C. As for the experimental part: MDA-MB-361, ZR-75-1 and […] cells were grown in T75 flasks at 37° C. and 5% CO2. Upon reaching 80% confluency, the cells were counted and seeded onto coverslips placed inside 6-well culture plates at a density of 80,000 cells/well. The cells were allowed to attach for 24 hours before the experiment was performed. Upon attachment, the cells were washed twice with HBSS and serum free media.
Stock solutions of FITC labeled HER2-PEPs and control peptide were prepared with dimethyl sulfoxide (DMSO). Stock solutions were diluted with serum free media medium several times and less than 1% of DMSO was presented in the final solutions of all peptides (10 μM), which were added to the 6-well culture plates.
After incubating 15 minutes at 37° C., the medium was removed and the cells were washed twice with HBSS. The cells were then treated with a 2.5 μg/mL solution of Alexa fluor 594 wheat germ agglutinin in HBSS for 10 minutes to stain the cell plasma membrane. The dye solution was removed and cells were washed twice with HBSS. The cells were then fixed by performing a 15 minute treatment using 4% paraformaldehyde solution prepared in HBSS. The cells were washed with HBSS followed by a final wash of distilled water. […] The FITC fluorescence was visualized using 491 nm and the Alexa fluor 594 fluorescence was visualized using 561 nm wavelength filter.

In another assay the test system is HEK 293 cells. As for the experimental part: (§1) Cells were cultured to 80% confluency in T75 culture flasks using Dulbecco's Modified Eagle's Medium (DMEM) as growth medium. The cell density was determined using a Coulter Counter. The cells were seeded onto 96 well plates and grown for 24 h. to 50% confluency. […] At the end of the incubation period, the cells were fixed using 10% trichloroacetic acid, followed by washing with distilled water and drying. The cellular proteins were stained using 50 μL of 0.4% sulforhodamine B (SRB) in 1% acetic acid. Unbound SRB was washed with 1% acetic acid and the plates were dried overnight. The cell-bound SRB was then solubilized using 200 μL of 10 mM unbuffered Tris base solution. SRB absorbance was measured at 560 nm wavelength using a Plate Reader. The percent viability of cells was plotted as a function of log concentration and data was analyzed in GraphPad Prism Version 5.0 software (GraphPad Software, Inc., California, USA) using a nonlinear-regression curve fit (variable slope four parameter equation).

Assay [3] concerns A431 cells. The note with it: A431, 72 h, SRB. The procedure: as §1
The test system of assay [4] is A431, MDA-MB-468 and HEK 293 cells. The assay can be described thus: Confocal binding/internalization of FITC labeled peptides. It counts as cell-based. As for the experimental part: (§2) A431, MDA-MB-468 and HEK 293 cells were cultured in 75 cm^2 culture flasks in DMEM supplemented with 10% FBS. For binding/internalization studies, 5×10^5 cells were seeded in cover slips in 6 well culture plates overnight. After the medium was removed, the cells were washed with HBSS and then cells were treated with FITC labeled antibody mimic and scrambled (control) peptide in serum free DMEM for 30 minutes at 37° C. Cells were then washed with HBSS to remove any unbound peptides and incubated with AlexaFluor 594 wheat germ agglutinin to stain cell membranes. Cells were fixed with 4% paraformaldehyde and cover slips were mounted on slides which contain a drop of SlowFade®. Cells were then imaged with an inverted Leica DMIRE2 fluorescence microscope (Leica Biosystems Richmond Inc., Richmond, USA) using a Yokogawa CSUX1 confocal scanner unit. For flow cytometry studies, cells were washed with HBSS after incubation with antibody mimics, control peptide for 30 minutes, and dissociated using trypsin-EDTA. Cells were then centrifuged at 500 g for 5 min. Supernatant was removed and cell pellets were re-suspended in FACS solution. The cell suspension was then analyzed on a Beckman Coulter flow cytometer and data were analyzed using the Cell Questpro. A total of 10000 events were collected monitoring FITC.

In a further assay the target is Recombinant human EGFR (Homo sapiens, UniProt P00533). Description: Surface plasmon resonance on immobilized EGFR. Particulars: SPR, EGFR as immobilized surface, 1:1 binding model, 25° C. The procedure: Binding affinity constant of antibody mimics was calculated by surface plasmon resonance (Reichert SR7000DC). A carboxymethyl dextran gold sensor chip was activated by N-hydroxysuccinimide (NHS) and N-ethyl-N″-[3-([…])propyl] carbodiimide (EDC) at 25° C. using phosphate buffered saline pH 7.4 with 0.05% tween 20 as running buffer. […] Unreactive sites were blocked by flowing over the chip 1 M ethanolamine pH 8.5 at 10 μL/min for 8 minutes. […] The resulting sensograms were globally fitted using Scrubber2 software (BioLogic Software, Campbell, Australia) in a 1:1 binding model to determine the association rate (kon), dissociation rate (kd or koff), and dissociation constant KD.
Chain of Recombinant human EGFR (P00533 25-1210): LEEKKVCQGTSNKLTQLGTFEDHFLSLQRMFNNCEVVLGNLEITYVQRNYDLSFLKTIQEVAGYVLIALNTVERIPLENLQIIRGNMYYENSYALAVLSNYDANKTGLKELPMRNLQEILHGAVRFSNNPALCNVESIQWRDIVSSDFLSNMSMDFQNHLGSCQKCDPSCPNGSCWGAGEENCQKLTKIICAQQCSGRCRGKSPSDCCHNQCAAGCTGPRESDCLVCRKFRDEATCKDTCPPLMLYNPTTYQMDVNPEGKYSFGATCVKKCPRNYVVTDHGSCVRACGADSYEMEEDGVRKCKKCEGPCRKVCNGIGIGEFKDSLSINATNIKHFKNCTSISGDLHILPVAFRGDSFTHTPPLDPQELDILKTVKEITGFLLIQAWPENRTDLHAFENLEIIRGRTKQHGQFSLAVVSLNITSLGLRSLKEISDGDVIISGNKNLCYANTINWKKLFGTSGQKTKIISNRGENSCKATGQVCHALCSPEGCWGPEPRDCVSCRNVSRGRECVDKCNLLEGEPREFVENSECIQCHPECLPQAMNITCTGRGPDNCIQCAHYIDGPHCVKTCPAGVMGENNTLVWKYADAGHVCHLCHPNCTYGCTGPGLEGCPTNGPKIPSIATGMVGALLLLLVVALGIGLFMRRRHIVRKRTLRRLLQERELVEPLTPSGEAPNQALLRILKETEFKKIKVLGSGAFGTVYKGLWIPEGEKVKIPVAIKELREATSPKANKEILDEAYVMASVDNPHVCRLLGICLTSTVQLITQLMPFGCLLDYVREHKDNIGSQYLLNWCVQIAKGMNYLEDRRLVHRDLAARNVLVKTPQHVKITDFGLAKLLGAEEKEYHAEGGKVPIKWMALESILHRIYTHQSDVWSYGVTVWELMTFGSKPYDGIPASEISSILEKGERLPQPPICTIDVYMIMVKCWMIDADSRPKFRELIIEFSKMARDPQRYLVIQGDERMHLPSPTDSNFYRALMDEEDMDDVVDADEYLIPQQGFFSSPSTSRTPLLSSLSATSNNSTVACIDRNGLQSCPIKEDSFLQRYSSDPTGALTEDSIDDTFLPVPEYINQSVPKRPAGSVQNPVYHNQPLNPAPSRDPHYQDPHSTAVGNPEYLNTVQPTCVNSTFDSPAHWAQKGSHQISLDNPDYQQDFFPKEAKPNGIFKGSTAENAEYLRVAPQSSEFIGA
A general note: Surface plasmon resonance follows binding to a sensor surface in real time, without labels.

In assay [5] the test system is MDA-MB-468 cells. The assay can be described thus: In vitro cytotoxicity, sulforhodamine B assay. It counts as cell-based. Particulars: MDA-MB-468, 72 h, SRB. The procedure: as §1
(In general: The SRB assay estimates cell density from bound dye.)

The test system of a further assay is HEK293 cells. The assay can be described thus: Flow cytometry of FITC labeled HER2 mimics. It counts as cell-based, human. The note with it: HEK 293, 10 μM, 15 minutes. The procedure: (§3) Flow cytometric studies were carried out to quantify the fluorescence intensity of cells after being incubated with FITC labeled mimics. MDA-MB-361, ZR-75-1 and HEK293 cells were seeded in 6-well culture plates at a density of 3×10^5 cells per well for 24 hours and then incubated with FITC labeled mimics at a concentration of 10 μM in HBSS at 37° C. for 15 minutes. After washing with HBSS twice, cells remaining on the plates were trypsinized with Trpsin-EDTA and centrifuged at 1500 rpm for 5 min. Supernatant was removed and cell pellets were resuspended in 1 ml of HBSS. The suspension was transferred to a FACS Calibur™ flow cytometer and cell fluorescence was measured with high dynamic range photomultipliers with a 530 nm filter. Quantitative changes of fluorescence in different cells samples were assessed by mean fluorescence intensity (MFI), and FACS data were analyzed using BD CellQuest™ Pro software. Paired t-tests were used to determine statistical significance using the GraphPad Prism 5® Software. P-values less than or equal to 0.05 were considered to be statistically significant.
A general note: In flow cytometry, cells or beads pass a laser one at a time.

A further assay relates to ZR-75-1 cells. Description: Flow cytometry of FITC labeled HER2 mimics. It counts as cell-based. Particulars: ZR-75-1, 10 μM, 15 minutes. As for the experimental part:
as §3

Another assay deals with MDA-MB-361 cells. Description: Flow cytometry of FITC labeled HER2 mimics. The note with it: MDA-MB-361, 10 μM, 15 minutes. It counts as cell-based. The procedure:
as §3

The test system of assay [6] is MDA-MB-468 cells. Description: Flow cytometry uptake of FITC labeled peptides. It counts as cell-based. The procedure:
as §2

Assay [7] has as its system A431 cells. The assay can be described thus: Flow cytometry uptake of FITC labeled peptides. The class given is cell-based. The procedure:
as §2

T1 sequence (P04626 23-1255): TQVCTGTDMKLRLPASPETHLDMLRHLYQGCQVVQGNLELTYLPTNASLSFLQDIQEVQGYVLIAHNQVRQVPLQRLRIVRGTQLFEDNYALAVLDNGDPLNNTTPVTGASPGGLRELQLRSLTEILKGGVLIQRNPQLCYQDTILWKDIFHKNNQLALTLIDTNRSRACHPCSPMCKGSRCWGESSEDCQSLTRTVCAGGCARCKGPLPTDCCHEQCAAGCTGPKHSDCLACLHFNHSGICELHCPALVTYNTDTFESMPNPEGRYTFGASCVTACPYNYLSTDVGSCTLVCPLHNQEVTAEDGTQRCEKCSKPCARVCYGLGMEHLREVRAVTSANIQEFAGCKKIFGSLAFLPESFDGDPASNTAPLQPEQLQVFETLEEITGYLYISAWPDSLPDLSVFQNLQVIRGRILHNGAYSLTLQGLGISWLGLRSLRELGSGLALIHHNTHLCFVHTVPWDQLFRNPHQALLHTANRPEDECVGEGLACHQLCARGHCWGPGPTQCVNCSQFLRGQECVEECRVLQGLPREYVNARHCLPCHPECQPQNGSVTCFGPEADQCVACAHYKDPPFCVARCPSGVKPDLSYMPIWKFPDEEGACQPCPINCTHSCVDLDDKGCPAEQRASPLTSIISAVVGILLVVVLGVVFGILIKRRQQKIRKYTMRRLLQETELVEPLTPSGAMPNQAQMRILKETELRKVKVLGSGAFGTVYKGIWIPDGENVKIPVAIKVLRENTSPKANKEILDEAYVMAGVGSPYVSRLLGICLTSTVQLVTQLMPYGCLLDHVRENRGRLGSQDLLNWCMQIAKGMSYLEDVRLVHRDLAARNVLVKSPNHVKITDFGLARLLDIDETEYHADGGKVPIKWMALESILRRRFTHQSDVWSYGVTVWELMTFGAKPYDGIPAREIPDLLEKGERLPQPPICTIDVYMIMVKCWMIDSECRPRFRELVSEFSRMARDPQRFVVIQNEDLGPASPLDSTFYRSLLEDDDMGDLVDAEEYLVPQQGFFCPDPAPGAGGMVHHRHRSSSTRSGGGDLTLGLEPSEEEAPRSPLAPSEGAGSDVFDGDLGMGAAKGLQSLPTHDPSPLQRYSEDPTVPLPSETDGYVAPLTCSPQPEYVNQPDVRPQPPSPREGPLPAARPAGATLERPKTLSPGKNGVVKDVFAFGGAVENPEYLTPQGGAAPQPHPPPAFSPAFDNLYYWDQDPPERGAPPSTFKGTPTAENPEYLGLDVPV

Take `CC(C)C[C@H](NC(=O)[C@H](Cc1ccccc1)NC(=O)CNC(=O)[C@H](C)NC(=O)[C@H](CC(=O)O)NC(=O)[C@H](CC(N)=O)NC(=O)[C@@H]1CCCN1C(=O)[C@H](Cc1ccc(O)cc1)NC(=O)CNC(=O)[C@H](CCC(N)=O)NC(=O)[C@@H]1CCCN1C(=O)[C@H](CO)NC(=O)[C@@H](N)[C@@H](C)O)C(=O)NCC(=O)N[C@@H](CCCNC(=N)N)C(=O)N[C@@H](CCC(=O)O)C(=O)N[C@@H](CO)C(=O)N[C@H](C(=O)N[C@@H](CC(N)=O)C(=O)O)[C@@H](C)O` [HER2-Pep22] (H-TSPQGYPNDAGFLGRESTN-OH; N-terminus and C-terminus assumed): in [1], the “KD higher than that of HER2-PEP11 and HER2-PEP21” value was “about 2000 fold”. Also, the kd in assay [1] (HER2 immobilized, 1:1 model, 25° C.) was determined as 0.0181 s⁻¹. In addition, the kon in [1] (HER2 immobilized, 1:1 model, 25° C., read-out: ka) was found to be 131 M⁻¹ s⁻¹. For the same molecule, the “binding to cells, confocal microscopy” value in [2] was “no binding to all the three cell lines”.
As for `C[C@H](NC(=O)[C@H](CCC(=O)O)NC(=O)[C@H](Cc1ccc(O)cc1)NC(=O)[C@H](CC(=O)O)NC(=O)[C@H](Cc1ccc(O)cc1)NC(=O)[C@H](Cc1ccccc1)NC(=O)CNC(=O)[C@@H]1CCCN1C(=O)CNC(=O)[C@H](CC(N)=O)NC(=O)[C@H](CCC(=O)O)NC(=O)CNC(=O)[C@H](CO)NC(=O)[C@@H](N)Cc1c[nH]c2ccccc12)C(=O)O` [Pep11] (H-WSGENGPGFYDYEA-OH; N-terminus and C-terminus assumed), the negative-log IC50 (pIC50) (in general, the IC50 on a negative log10 scale, so that one unit is a factor of ten) in the assay on HEK 293 cells (HEK 293, 72 h, SRB) was 5.98; with A431 cells [3] it was 6.41; in the assay on MDA-MB-468 cells [5] it was 6.38. For the same molecule, the “lower potency towards control cells compared to cancer cells” value in the assay with HEK 293 cells (HEK 293 vs cells that over-express EGFR) is 2- to 3 fold. In addition, in assay [4] (EGFR blocked by cetuximab for 30 min, A431 and MDA-MB-468), the “binding to cells after cetuximab pre-incubation” value is “inhibited/decreased”. At Recombinant human EGFR, the pKd – broadly, −log10 of the Kd, conventionally taken in molar units – was 6.60. Moreover, the koff (as a rule, the rate constant with which the complex falls apart) at Recombinant human EGFR is 0.0252 s⁻¹. Moreover, the kon at Recombinant human EGFR amounted to 100000 M⁻¹ s⁻¹.
For “FITC-HER2-PEP22: FITC labeled control peptide HER2-PEP22 (TSPQGYPNDAGFLGRESTN; not fully specified (N-terminus); also: FITC labeled)”, the MFI with HEK293 cells was determined as 14.7±1.7; in the assay on ZR-75-1 cells, 19.6±3.2; with MDA-MB-361 cells, 22.1±0.5.
Take “SGEWAYDGYEPNFG (Synthetic amino acid - Control) [Pep25, scrambled peptide, negative control]”: the “binding to cancer cell line, flow cytometry” value with MDA-MB-468 cells [6] and in the assay with A431 cells [7] was “negligible binding” in each case. For the same molecule, the “binding to cells, confocal fluorescence” value in assay [4] (FITC labeled peptide, 30 minutes at 37° C.) is listed as “negligible binding”.

Values taken from US9957325B2, “Synthetic antibody mimic peptides” (Formurex, Inc., priority 2015, dated 2018).
